Experimental data: PMC5848165 (Toxins, 2018)

Legend:
[1] = system: formalin-induced paw licking response in mice; assay: Formalin-induced paw licking; assay type: in vivo, mouse (Kunming); conditions: 5 mg/kg i.p., n = 6
Protocol: Since Nav1.7 plays an important role in pain, the analgesic effects of JZTX-34 were examined in three animal models (formalin-induced paw licking, acetic acid-induced writhing, and hot plate). Intraplantar injection of formalin causes pain and can be divided into two phases. The early phase was neurogenic pain and usually occurred within […]), and the late phase was inflammatory pain lasting from 15 to 30 min).
(§1) Figure 6 Effects of JZTX-34 on pain. (A) Effects of JZTX-34 on the early phase (0–5 min) and late phase (15–30 min) of formalin-induced paw licking response in mice. (B) Effects of JZTX-34 on the acetic acid-induced writhing response in mice. (C)Effects of JZTX-34 on the hot plate test in mice.
(§2) The synthesized JZTX-34 was obtained according to the procedure as previously described. […] Rats (Sprague-Dawley) and Kunming mice were maintained in the Laboratory of Protein Chemistry of Hunan Normal University. All of the experimental involving animals were approved by the Animal Care and Use Committee of Hunan Normal University (2016-273, 13 October 2016).
Formalin test was performed according to the method described previously. […] After test samples were intraperitoneally (i.p.) injected, 5% formalin (20 μL) was injected to the plantar surface of right hind paw. The time spent licking the injected paw was counted every 5 min. Phase I was defined as 0–10 min, and Phase II defined as […].
(§3) Data from Axon 700B patch clamp were analyzed by Clampfit10.0 (Molecular Devices, Sunnyvale, CA, USA). Dose-response curves were fitted by the Hill logistic equation: y = 1 − (1 − fmax)/[…]. In this equation, n stands an empirical Hill coefficient and fmax is the fraction of current resistant to inhibition at high toxin (Tx) concentration. The G-V curves were obtained by calculating the conductance (G) at each voltage (V) using the equation G = I/(V1 − Vrev), with Vrev being the reversal potential determined for each cell individually. G-V curves were fitted using a Boltzmann equation—y = 1/(1 + exp[(Va − V)/κ])—in which Va, V, and κ represent midpoint voltage of kinetics, test potential, and slope factor, respectively. […] Statistical significance was calculated using Student’s t-test and was defined as p < 0.05.

hot plate test in mice = assay: Hot plate test; assay type: in vivo, mouse (Kunming); conditions: 5 mg/kg i.p., baseline about 10 s, n = 6
Protocol: as §1
Mice with a latency time about 10 s were selected for the hot plate test. […] After administration of test samples, the latency time was recorded at the time points of 30 min, 60 min, 120 min, and 180 min (Figure 6C). Negative control animals received the same volume of vehicle.
as §2
Mice were put on a hot plate apparatus (model HZ66-ZH-YLS-6B, Shanghai, China) in order to test response time to a thermal stimulus. The responses time of mice at about 10 s was selected for the test. […] Hind paw licking or jumping were regarded as a sign to avoid heat nociception.
as §3

[2] = system: other sodium channel subtypes; conditions: literature statement, no reference given; cited from earlier work
[3] = system: inflammatory pain and neuropathic pain; conditions: cited from earlier work
Nav1.7 = conditions: cited from earlier work; for potency on Nav1.7 (literature): ref [14],[15]
Source text: Chronic pain is one of the most difficult clinical problems. As Nav1.7 is considered one of the most attractive targets for relieving chronic pain, scientist have paid a lot of effort to look for a selective inhibitor of Nav1.7. Several small molecules with selectivity on Nav1.7 are currently undergoing clinical development, including PF-05089771 (Pfizer, New York, NY, USA) and CNV1014802 (Convergence Pharmaceuticals, London , UK). Compared to small molecules, peptide toxins have better subtype selectivity due to their larger pharmacophore. Spider venoms are a rich source of ion ch ... || Many peptide toxins, which alter gating properties of VGSCs, have been identified to trap the DIIS3-S4 linker of sodium channels. However, the molecular mechanisms of inhibition of sodium currents by peptide toxins are greatly divergent. […] Pro ...

[4] = system: C-fiber compound action potential; design: method as in PMID 28045073; conditions: desheathed cutaneous nerves; ref [27]; cited from earlier work

| Compound | paw licking time, early phase ([1]; control 145.5 s) | paw licking time, late phase ([1]; control 414.5 s) | hot plate latency (hot plate test in mice; 30 min) | hot plate latency (hot plate test in mice; 60 min) | activity on other sodium channel subtypes [2] | relief of acute inflammatory and chronic neuropathic pain ([3]; ref [28]) | potency on Nav1.7 (literature) (Nav1.7) | effect on channel gating (HWTX-IV, literature) (Nav1.7; ref [25]) | C-fiber compound action potential [4] | analgesic effect on severe pain ([3]; ref [27]) | effect on channel gating (ProTx-II, literature) (Nav1.7; ref [26]) |
| --- | --- | --- | --- | --- | --- | --- | --- | --- | --- | --- | --- |
| CN1CC[C@]23c4c5ccc(O)c4O[C@H]2[C@@H](O)C=C[C@H]3[C@H]1C5 [morphine, reference compound] | 35.3 s | 265 s | 24.8 | 12.2 s |  |  |  |  |  |  |  |
| HWTX-IV |  |  |  |  | also show activity on other sodium channel subtypes | efficiently eased the acute inflammatory pain and chronic neuropathic pain | very potent Nav1.7 blockers | without affecting activation or inactivation of channels |  |  |  |
| ProTx-II |  |  |  |  | also show activity on other sodium channel subtypes |  | very potent Nav1.7 blockers |  | completely blocked the C-fiber compound action potential | exerted a strong analgesic effect on severe pain | modified the voltage dependence of VGSC inactivation |
